Data published in US12115226B2, “Linker containing arylnitro, antibody-drug conjugate containing linker and use of linker” (Academy of Military Medical Sciences, priority 2018, dated 2024).
Square brackets hold non-standard residues; d marks the D form. Peptide text beside a SMILES is read from it. * marks the point of attachment. Dolaproine = CO[C@@H]([C@@H]1CCCN1)[C@@H](C)C(=O)O; Dil = CC[C@H](C)[C@H](NC)[C@@H](CC(=O)O)OC; X1 = C[C@@H](N*)[C@@H](O)c1ccccc1; NMeV = CN[C@H](C(=O)O)C(C)C

Experiments:
[1] = system: NCI-N87 human gastric cancer cell xenograft; test: Efficacy in nude mice xenograft model of NCI-N87 human gastric cancer cell
Protocol: The tested drug was dissolved in physiological saline and administered via tail vein injection.
The NCI-N87 gastric adenocarcinoma cells (purchased from ATCC) were cultured with DMEM medium containing inactivated 10% fetal bovine serum, 100 U/mL penicillin, 100 μg/mL streptomycin, and 2 mM glutamine in an incubator at 37° C. and 5% CO2. The initial concentration of the cultured cell was 1×10^6 cells/ml, and the cells were divided into bottles for passage every 3 to 4 days after the cells were full. The cancer cells in the logarithmic growth phase at 5×10^6 cells/0.1 mL were inoculated under skin of right lateral thorax of BALB/c nude mice (female, 6-8 weeks old, 18-22 g, purchased from Beijing Ankai Yibo Biotechnology Co., Ltd.). When the tumor grew to a volume of 150 mm^3, the modeling was successful. Then the administration was started, 6 mice in each dose group were administered at the specified dose once a week, the administration volume was 5 mL/kg, and the administration was performed 4 times in total. The tumor volume was measured twice a week by measurement of the long and short diameters of tumor with vernier caliper. The volume calculation formula was: volume=0.5×long diameter×short diameter^2. When the tumor volume was measured, the mice were weighed at the same time. The relationship between the change of mouse body weight and the time of administration was recorded. […]

[2] = system: antigen HER2-positive breast cancer cell line BT-474; test: Hypoxia-dependent cytotoxicity of ADC-1 (different oxygen environments); conditions: for IC50: Homo sapiens
Protocol: The tested cell line was antigen HER2-positive breast cancer cell line BT-474. The cell culture process was as described in Example 12, in which the oxygen concentrations in the cell incubator were separately set to 0.1%, 1.0%, 5.0%, 10.0% and 20.0%.

[3] = system: antigen HER2-negative breast cancer cell line MDA-MB-468; test: In vitro cytotoxicity of ADC (CellTiter Glo), MDA-MB-468; format: cell-based; conditions: 0.1% O2, 168 hours, ADC DAR about 4
Protocol: (§1) The vial containing the target cells was gently stirred in a 37° C. water bath to be thawed.
(§2) After the content was thawed, the vial was taken out from the water bath and decontaminated by immersion or spraying with 70% ethanol.
(§3) The cells were re-suspended in the culture medium, settled and distributed into a culture flask with an area of 75 cm^2.
(§4) The resulting culture was incubated in a Galaxy® CO2 incubator (48R, #C048312044) with 5% CO2 at 37° C., and the oxygen concentration in the incubator was 0.1%.
(§5) The cells were passaged three times a week at a ratio of 1:4 in a medium containing 10% […] (heat inactivated) and 1% penicillin-streptomycin solution.
(§6) For the passaged cells, the adherent cells were firstly rinsed with trypsin/EDTA solution (3 mL), then trypsin/EDTA (3 mL, T75 flask) was added, and spun to coat the cells evenly. The resulting culture was incubated at 37° C. until the cells were detached. It was observed by microscope to verify that the cells had been detached, then an equal volume of cell culture medium was added to inactivate trypsin, the detached cells were collected, and centrifuged at 200 g for 5 minutes, and then re-suspended in a fresh culture medium. […]
(§7) The cells were harvested and counted to determine the number of cells;

[4] = system: antigen HER2-positive breast cancer cell line BT-474; test: In vitro cytotoxicity of ADC (CellTiter Glo), BT-474; format: cell-based, human; conditions: 0.1% O2, 168 hours, ADC DAR about 4
Protocol: as §1, §2, §3, §4, §5, §6, §7

[5] = system: antigen HER2-positive gastric cancer cell line NCI-N87; test: In vitro cytotoxicity of ADC (CellTiter Glo), NCI-N87; format: cell-based, human; conditions: 0.1% O2, 168 hours, ADC DAR about 4
Protocol: as §1, §2, §3, §4, §5, §6, §7

[6] = system: antigen HER2-weakly positive breast cancer cell line MCF-7; test: In vitro cytotoxicity of ADC (CellTiter Glo), MCF-7; format: cell-based; conditions: 0.1% O2, 168 hours, ADC DAR about 4
Protocol: as §1, §2, §3, §4, §5, §6, §7

[7] = system: antigen HER2-positive breast cancer cell line HCC1954; test: In vitro cytotoxicity of ADC (CellTiter Glo), HCC1954; format: cell-based; conditions: 0.1% O2, 168 hours, ADC DAR about 4
Protocol: as §1, §2, §3, §4, §5, §6, §7

[8] = system: antigen HER2-positive ovarian cancer cell line SK-OV-3; test: In vitro cytotoxicity of ADC (CellTiter Glo), SK-OV-3; format: cell-based; conditions: 0.1% O2, 168 hours, ADC DAR about 4
Protocol: as §1, §2, §3, §4, §5, §6, §7

Structure (SMILES): CC(=O)O[C@@]12CO[C@@H]1C[C@H](O)[C@@]1(C)C(=O)[C@H](O)C3=C(C)[C@@H](OC(=O)[C@H](O)[C@@H](NC(=O)OC(C)(C)C)c4ccccc4)C[C@@](O)([C@@H](OC(=O)c4ccccc4)[C@H]21)C3(C)C [Doxetaxel]
- P(Vehicle VS Doxetaxel), body weight [1]: 0.0422
- body weight of animals in the course of administration and treatment ([1]; nude mice): significant weight loss

Structure (SMILES): CC[C@H](C)[C@@H]([C@@H](CC(=O)N1CCC[C@H]1[C@H](OC)[C@@H](C)C(=O)N[C@H](C)[C@@H](O)c1ccccc1)OC)N(C)C(=O)[C@@H](NC(=O)[C@H](C(C)C)N(C)C(=O)OCc1ccc(OCc2cnc([N+](=O)[O-])n2C)c(NC(=O)CNCCCCCCN2C(=O)C=CC2=O)c1)C(C)C [L01-MMAE]
- IC50 ([2]; BT-474, read-out: IC50, cytotoxicity to BT-474 cells, O2 0.1%): 3.1 nM
- IC50 ([2]; BT-474, read-out: IC50, cytotoxicity to BT-474 cells, O2 1.0%): 3.11 nM
- IC50 ([2]; BT-474, read-out: IC50, cytotoxicity to BT-474 cells, O2 5.0%): 4.32 nM
- IC50 ([2]; BT-474, read-out: IC50, cytotoxicity to BT-474 cells, O2 10.0%): 8.94 nM
- IC50 ([2]; BT-474, read-out: IC50, cytotoxicity to BT-474 cells, O2 20.0%): 5.39 nM
- increase of activity under hypoxic condition compared with normoxic condition ([2]; oxygen 0.1% versus 20%, BT-474): ~2 times

Structure (SMILES): CC[C@H](C)[C@@H]([C@@H](CC(=O)N1CCC[C@H]1[C@H](OC)[C@@H](C)C(=O)N[C@H](C)[C@@H](O)c1ccccc1)OC)N(C)C(=O)[C@@H](NC(=O)[C@@H](NC)C(C)C)C(C)C [MMAE, monomethyl auristatin E] (H-[NMeV]V[Dil][Dolaproine]-X1)
- IC50 [3]: 0.13 nM
- IC50 [4]: 0.06 nM
- IC50 [5]: 0.23 nM
- IC50 [6]: 3.81 nM
- IC50 [7]: 0.07 nM
- IC50 [8]: 0.54 nM
